Test results as given in US20230365563A1, “QUINAZOLINE COMPOUND AND APPLICATION THEREOF” (SHANGHAI PHARMACEUTICALS HOLDING CO., LTD., priority 2020, published 2023).
Where a name gives a salt, the structure may show the parent alone.

Experiments:
KRAS-G12D and SOS1 = target: T1, KRAS-G12D and SOS1 (Homo sapiens, UniProt P01116, G12D); experiment: Inhibition of KRAS-G12D/SOS1 binding (Cisbio binding kit, 665/615 ratio), Effect Embodiment A; details: read-out: GTP-KRAS-G12D:SOS1 IC50
T1 construct: purchased
T1 sequence (P01116 1-188 isoform P01116-2 G12D): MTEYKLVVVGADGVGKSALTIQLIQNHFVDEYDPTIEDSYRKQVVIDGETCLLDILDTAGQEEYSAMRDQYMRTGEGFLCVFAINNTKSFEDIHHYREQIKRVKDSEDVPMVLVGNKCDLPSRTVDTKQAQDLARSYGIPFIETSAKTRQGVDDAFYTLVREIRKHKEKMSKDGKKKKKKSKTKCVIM
Method in brief: (§1)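 Compounds are tested over eleven threefold dilution steps in duplicate, with final DMSO at 1%.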

KRAS_WT and SOS1 = target: T2, KRAS_WT and SOS1 (Homo sapiens, UniProt P01116); experiment: Inhibition of KRAS_WT/SOS1 binding (Cisbio binding kit, 665/615 ratio), Effect Embodiment C; details: read-out: GTP-KRAS-WT:SOS1 IC50
T2 construct: purchased
T2 sequence (P01116 1-188 isoform P01116-2): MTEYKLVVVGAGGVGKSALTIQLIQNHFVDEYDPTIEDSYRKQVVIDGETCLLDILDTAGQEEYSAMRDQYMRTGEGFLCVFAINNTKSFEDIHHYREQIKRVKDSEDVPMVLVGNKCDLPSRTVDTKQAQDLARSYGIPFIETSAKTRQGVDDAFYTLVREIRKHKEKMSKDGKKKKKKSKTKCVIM
Method in brief: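 Compounds tested as 3-fold, 11-point dilutions in duplicate at 1% DMSO final against the KRAS_WT/SOS1 binding system. IC50 derived by nonlinear regression fit.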

KRAS_G12D and cRAF = target: T3, KRAS_G12D and cRAF (Homo sapiens, UniProt P01116, G12D); experiment: Inhibition of KRAS_G12D/cRAF binding (Cisbio binding kit, 665/615 ratio), Effect Embodiment B; details: read-out: GTP-KRAS-G12D:CRAF IC50
T3 construct: purchased
T3 sequence (P01116 1-188 isoform P01116-2 G12D): as the sequence (P01116 1-188 isoform P01116-2 G12D) above
Method in brief: as §1

IC50 (KRAS-G12D and SOS1) [nM] | IC50 (KRAS_WT and SOS1) [nM] | IC50 (KRAS_G12D and cRAF) [nM] | Structure (SMILES)
67.9 | 1760 | 339 | C[C@@H]1CCCCN1CCOc1nc(N2CC3CCC(C2)N3)c2cc(Cl)c(-c3cc(O)cc4ccccc34)c(F)c2n1 (single isomer, unassigned) [Compound 269, (S or R)-4-(4-((1R,5S)-3,8-diazacyclo[3.2.1]octan-3-yl)-6-chloro-8-fluoro-2-(2-((R)-2-methylpiperidin-1-yl)ethoxy)quinazolin-7-yl)naphthalen-2-ol formate]
39.1 | 2210 | 164 | Oc1cc(-c2c(Cl)cc3c(N4CC5CCC(C4)N5)nc(OCCCN4CCOC5(CC5)C4)nc3c2F)c2ccccc2c1 (single isomer, unassigned) [Compound 240, 4-((S or R)-2-(3-(4-oxa-7-azaspiro[2.5]octan-7-yl)propoxy)-4-((1R,5S)-3,8-diazacyclo[3.2.1]octan-3-yl)-6-chloro-8-fluoroquinazolin-7-yl)naphthalen-2-ol formate]
214 | 16700 | 646 | CN(C)CCCCCCOc1nc(N2C[C@H]3CC[C@@H](C2)N3)c2cc(Cl)c(-c3cc(O)cc4ccccc34)c(F)c2n1 (single isomer, unassigned) [Compound 68, (S or R)-4-(4-((1R,5S)-3,8-diazabicyclo[3.2.1]octan-3-yl)-6-chloro-2-((6-(dimethylamino)hexyl)oxy)-8-fluoroquinazolin-7-yl)naphthalen-2-ol dihydrochloride]
278 | 15900 | 3330 | CN(C)C1CN(c2nc(N3CC4(CNC4)C3)c3cc(Cl)c(-c4cc(O)cc5ccccc45)c(F)c3n2)C1 (single isomer, unassigned) [Compound 7a, (R or S)-4-(6-chloro-2-(3-(dimethylamino)azetidin-1-yl)-8-fluoro-4-(2,6-diazaspiro[3.3]heptan-2-yl)quinazolin-7-yl)naphthalen-2-ol]
22 | 1540 | 88.5 | CN1CCCC1CCOc1nc(N2CC3CCC(C2)N3)c2cc(Cl)c(-c3cc(O)cc4ccccc34)c(F)c2n1 (single isomer, unassigned) [Compound 96a, 4-((S or R)-4-((1R,5S)-3,8-diazabicyclo[3.2.1]octan-3-yl)-6-chloro-8-fluoro-2-(2-((S or R)-1-methylpyrrolidin-2-yl)ethoxy)quinazolin-7-yl)naphthalen-2-ol]
780 | 10300 | 3230 | CN(C)C1CN(c2nc(N3CC4(CCNCC4)C3)c3cc(Cl)c(-c4cc(O)cc5ccccc45)c(F)c3n2)C1 (single isomer, unassigned) [Compound 10a, (R or S)-4-(6-chloro-2-(3-(dimethylamino)azetidin-1-yl)-8-fluoro-4-(2,7-diazaspiro[3.5]nonan-2-yl)quinazolin-7-yl)naphthalen-2-ol]
57.4 | 2520 | 119 | CN1CCC1CCOc1nc(N2CC3CCC(C2)N3)c2cc(Cl)c(-c3cc(O)cc4ccccc34)c(F)c2n1 (single isomer, unassigned) [Compound 112a, 4-((S or R)-4-((1R,5S)-3,8-diazabicyclo[3.2.1]octan-3-yl)-6-chloro-8-fluoro-2-(2-((S or R)-1-methylazetidin-2-yl)ethoxy)quinazolin-7-yl)naphthalen-2-ol dicarboxylate]
66 | > 100000 | 515 | CN(C)C1CCC(Oc2nc(N3CC4CCC(C3)N4)c3cc(Cl)c(-c4cc(O)cc5ccccc45)c(F)c3n2)C1 (single isomer, unassigned) [Compound 70b, 4-((S or R)-4-((1R,5S)-3,8-diazabicyclo[3.2.1]octan-3-yl)-6-chloro-2-((1R,3S or 1S,3R)-3-(dimethylamino)cyclopentyl)oxy)-8-fluoroquinazolin-7-yl)naphthalen-2-ol dihydrochloride]
52.4 | 1770 | 149 | Oc1cc(-c2c(Cl)cc3c(N4CC5CCC(C4)N5)nc(OCCCN4C5CC6CC4CC(C5)O6)nc3c2F)c2ccccc2c1 (single isomer, unassigned) [Compound 235, 4-((S or R)-2-(3-((1R,3R,5R,7R)-2-oxa-6-azadamantan-6-yl)propoxy)-4-((1R,5S)-3,8-diazabicyclo[3.2.1]octan-3-yl)-6-chloro-8-fluoroquinazolin-7-yl)naphthalen-2-ol formate]
8.77 | 27.3 | 10.9 | C#Cc1c(F)ccc2cccc(-c3c(F)cc4c(N5CC6CCC(C5)N6)nc(OC[C@@]56CCCN5C[C@H](F)C6)nc4c3F)c12 (single isomer, unassigned) [Compound 279a, (S or R)-4-((1R,5S)-3,8-diazacyclo[3.2.1]octyl-3-yl)-7-(8-ethynyl-7-fluoronaphthalen-1-yl)-6,8-difluoro-2-((2R,7aS)-2-fluorotetrahydro-1H-pyrrolidin-7a(5H)-yl)methoxy)quinazoline formate]
59.6 | 7850 | 199 | CC1OCCN(CCCOc2nc(N3CC4CCC(C3)N4)c3cc(Cl)c(-c4cc(O)cc5ccccc45)c(F)c3n2)C1C (single isomer, unassigned) [Compound 265b, 4-((R or S)-4-((1R,5S)-3,8-diazabicyclo[3.2.1]octan-3-yl)-6-chloro-2-(3-((2S or 2R, 3R or 3S)-2,3-dimethylmorpholinyl)propoxy)-8-fluoroquinazolin-7-yl)naphthalen-2-ol diformate]
230 | 68300 | 1600 | CN1CCC2(C1)CN(c1nc(N3CC4CCC(C3)N4)c3cc(Cl)c(-c4cc(O)cc5ccccc45)c(F)c3n1)C2 (single isomer, unassigned) [Compound 61a, 4-((S or R)-4-((1R,5S)-3,8-diazabicyclo[3.2.1]octan-3-yl)-6-chloro-8-fluoro-2-(6-methyl-2,6-diazaspiro[3.4]octan-2-yl)quinazolin-7-yl)naphthalen-2-ol]
11.9 | 52.4 | 5.44 | CCc1c(F)ccc2cc(O)cc(-c3c(F)cc4c(N5CC6CCC(C5)N6)nc(OCCCN5C6CCC5COC6)nc4c3F)c12 (single isomer, unassigned) [Compound 215a, 4-((7S or 7R)-2-(3-(3-oxa-8-azabicyclo[3.2.1]octan-8-yl)propoxy)-4-((1R,5S)-3,8-diazabicyclo[3.2.1]octan-3-yl)-6,8-difluoroquinazolin-7-yl)-5-ethyl-6-fluoronaphthalen-2-ol diformate]
52.2 | 2600 | 168 | CN1CCN(CCCOc2nc(N3CC4CCC(C3)N4)c3cc(Cl)c(-c4cc(O)cc5ccccc45)c(F)c3n2)CC1 (single isomer, unassigned) [Compound 99, 4-((S or R)-4-((1R,5S)-3,8-diazabicyclo[3.2.1]octan-3-yl)-6-chloro-8-fluoro-2-(3-(4-methylpiperazin-1-yl)propoxy)quinazolin-7-yl)naphthalen-2-ol dihydrochloride]
36.1 | 5650 | 59.4 | Oc1cc(-c2c(Cl)cc3c(N4CC5CCC(C4)N5)nc(OCC(CN4C5CCC4COC5)C4CC4)nc3c2F)c2ccccc2c1 (single isomer, unassigned) [Compound 209a, 4-((7S or 7R))-2-(2(R or S))-3-(3-oxa-8-azabicyclo[3.2.1]octan-8-yl)-2-cyclopropylpropoxy)-4-((1R,5S)-3,8-diazabicyclo[3.2.1]octan-3-yl)-6-chloro-8-fluoroquinazolin-7-yl)naphthalen-2-ol diformate]
25.9 | 4420 | 157 | Oc1cc(-c2c(Cl)cc3c(N4CC5CCC(C4)N5)nc(OCC45CCN(CC4)CC5)nc3c2F)c2ccccc2c1 (single isomer, unassigned) [Compound 260, 4-((S or R)-4-((1R,5S)-3,8-diazacyclo[3.2.1]octan-3-yl)-6-chloro-8-fluoro-2-(quinin-4-ylmethoxy)quinazolin-7-yl)naphthalen-2-ol diformate]
42 | 2270 | 180 | CN1C[C@@H](F)C[C@H]1COc1nc(N2CC3CCC(C2)N3)c2cnc(-c3cc(O)cc4ccccc34)c(F)c2n1 [Compound 129, 4-(4-((1R,5S)-3,8-diazabicyclo[3.2.1]octan-3-yl)-8-fluoro-2-((2S,4S)-4-fluoro-1-methylpyrrolidin-2-yl)methoxy)pyridinyl[4.3-d]pyrimidin-7-yl)naphthalen-2-ol ditrifluoroacetate]

Structure (SMILES) | IC50 (KRAS-G12D and SOS1) [nM] | IC50 (KRAS_WT and SOS1) [nM] | IC50 (KRAS_G12D and cRAF) [nM]
CN(C)[C@H]1C[C@@H](Oc2nc(N3CC4CCC(C3)N4)c3cc(Cl)c(-c4cc(O)cc5ccccc45)c(F)c3n2)C1 (single isomer, unassigned) [Compound 69a, 4-((S or R)-4-((1R,5S)-3,8-diazabicyclo[3.2.1]octan-3-yl)-6-chloro-2-((1S,3R)-3-(dimethylamino)cyclobutoxy)-8-fluoroquinazolin-7-yl)naphthalen-2-ol dihydrochloride] | 225 | > 100000 | 1850
